In patent publication US20160000737A1, “TREATMENT OF PETS WITH SIRTUIN ACTIVATORS” (NUSIRT SCIENCES, INC., priority 2013, published 2016):
Marks after values point to notes of the source that are not given here. Blank lines part the entries; values can stand above or below the compound they belong to.

Tests used:
diet-induced obese mice [1] = assay: Diet-induced obese mice on resveratrol/HMB/leucine diets: body weight, weight gain, adiposity; assay type: in vivo, c57/BL6 mice
Text: Six week old male c57/BL6 mice were fed a high-fat diet with fat increased to 45% of energy (Research Diets D12451) for 6 weeks to induce obesity. At the end of this obesity induction period, animals were randomly divided into the following seven different diet treatment groups with 10 animals per group (overall 70 animals) and maintained on these diets for 6 weeks:
Group 1 (labeled “control group”): high-fat diet only (same as in obesity induction period (Research Diets D12451)).
This diet was modified for groups 2 to 7 in the following way:
Group 2 (labeled “low dose resveratrol”): high-fat diet mixed with 12.5 mg resveratrol/kg diet.
Group 3 (labeled “high dose resveratrol”): high-fat diet mixed with 225 mg resveratrol/kg diet.
Group 4 (labeled “low dose HMB”): high-fat diet mixed with 2 g of the calcium salt of hydroxymethylbutyrate, a naturally occurring metabolite of leucine (CaHMB).
Group 5 (labeled “low dose resveratrol plus low dose CaHMB”): high fat-diet mixed with 12.5 mg of resveratrol/kg diet and 2 g CaHMB/kg diet.
Group 6 (labeled “low dose resveratrol plus high dose HMB”): high fat-diet mixed with 12.5 mg of resveratrol/kg diet and 10 g CaHMB/kg diet.
The animals were housed in polypropylene cages at a room temperature of 22±2° C. and regime of 12 h light/dark cycle. The animals had free access to water and their experimental food throughout the experiment. […]

diet-induced obese mice [2] = assay: microPET/CT glucose and palmitate uptake; assay type: in vivo, c57/BL6 mice; settings: 6 weeks
Method: at the end of the treatment period (6 weeks of treatment) subgroups of each treatment diet group (5 animals/group, 35 animals total) were used to measure whole body glucose and palmitate uptake via PET/CT Imaging. To visualize these compounds using microPET imaging, the glucose or palmitate was labeled with fluorine-18 (108 mins half life) or carbon-11 (20 mins half life), respectively. Each mouse was fasted for 4 hours, then anesthetized using 1-3% isoflurane delivered by nose cone or in a mouse-sized induction chamber purpose-built for small animal imaging protocols. While under anesthesia the mice were injected iv with <2 mCi of each tracer, then be left for a period of time (minutes to up˜1 hour) to allow the uptake of the tracer. During the scan, mice were kept warm using a thermostatically controlled heated bed and were treated with ophthalmic ointment prior to scanning Following the live scan the mice were returned to their cage and revived. Mice were monitored constantly during this time. Following live data acquisition the mice were sacrificed by isoflurane overdose and organs harvested for further experiments.

diet-induced obese mice [3] = assay: Oxygen consumption/substrate utilization in metabolic chambers (CLAMS); assay type: in vivo, c57/BL6 mice
Method: at the end of the obesity induction period (day 0 of treatment group) and at 2 weeks and 6 weeks of treatment, oxygen consumption and substrate utilization was measured via metabolic chambers using the Comprehensive Lab Animal Monitoring Systems (CLAMS, Columbus Instruments, Columbus, Ohio) in subgroups of each treatment group. Each animal was placed in individual cages without bedding that allow automated, non-invasive data collection. Each cage is an indirect open circuit calorimeter that provides measurement of oxygen consumption, carbon dioxide production, and concurrent measurement of food intake. All mice were acclimatized to the chambers for 24 hours prior to the experiment and maintained under the regular 12:12 light:dark cycle with free access to water and food. All experiments were started in the morning and data were collected for 24 hours. Each chamber was passed with 0.61 of air/min and was sampled for 2 min at 32-minute intervals. Exhaust O2 and CO2 content from each chamber was compared with ambient O2 and CO2 content. Food consumption was measured by electronic scales.

diet-induced obese mice [4] = assay: Indices of insulin sensitivity (plasma glucose, insulin, HOMAIR); assay type: in vivo, c57/BL6 mice; settings: resveratrol at either dose, HMB, each alone
Method: Insulin sensitivity can be measured using a variety of techniques, including HOMAIR. HOMAIR, which is the homeostasis model assessment of insulin resistance can be used as a screening index of changes in insulin sensitivity. HOMAIR can be calculated via standard formula from fasting plasma insulin and glucose as follows: HOMAIR=[Insulin (uU/mL)×glucose (mM)]/22.5.
(§1) The animals were housed in polypropylene cages at a room temperature of 22±2° C. and regime of 12 h light/dark cycle. The animals had free access to water and their experimental food throughout the experiment. At the of the treatment period (6 weeks) all animals were humanely euthanized, and blood and tissues collected for further experiments.

SIRT1 = molecular target: T1, SIRT1 (Mus musculus, UniProt Q923E4); assay: Adipose tissue SIRT1 activity (SIRT1 Fluorimetric Drug Discovery Kit); assay type: in vivo, c57/BL6 mice
T1 construct: effects of dietary treatments on adipose tissue Sirt1 activity; from tissue; host or cells: mouse adipose tissue
T1 sequence (Q923E4 1-737): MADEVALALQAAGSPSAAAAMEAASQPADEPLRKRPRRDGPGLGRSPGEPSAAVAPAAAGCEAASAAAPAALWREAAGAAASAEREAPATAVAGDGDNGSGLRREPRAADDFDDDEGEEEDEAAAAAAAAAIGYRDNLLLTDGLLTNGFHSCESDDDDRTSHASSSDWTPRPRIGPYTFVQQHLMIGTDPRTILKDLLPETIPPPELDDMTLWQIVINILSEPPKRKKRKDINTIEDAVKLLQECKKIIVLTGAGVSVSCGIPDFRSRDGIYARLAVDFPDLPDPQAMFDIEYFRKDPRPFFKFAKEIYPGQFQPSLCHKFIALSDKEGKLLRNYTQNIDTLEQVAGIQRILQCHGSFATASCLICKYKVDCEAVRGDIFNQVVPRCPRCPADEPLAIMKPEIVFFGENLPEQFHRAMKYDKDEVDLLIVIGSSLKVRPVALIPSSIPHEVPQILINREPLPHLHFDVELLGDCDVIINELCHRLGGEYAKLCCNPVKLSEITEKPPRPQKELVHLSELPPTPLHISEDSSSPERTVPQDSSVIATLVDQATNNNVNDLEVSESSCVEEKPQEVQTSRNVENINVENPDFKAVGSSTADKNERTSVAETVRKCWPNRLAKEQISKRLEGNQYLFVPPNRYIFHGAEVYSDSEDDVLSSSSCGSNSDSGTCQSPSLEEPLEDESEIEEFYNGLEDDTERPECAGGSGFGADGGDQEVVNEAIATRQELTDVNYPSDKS
Method: SIRT1 activity was measured by using the SIRT1 Fluorimetric Drug Discovery Kit (BML-AK555, ENZO Life Sciences International, Inc. PA, USA). In this assay, SIRT1 activity is assessed by the degree of deacetylation of a standardized substrate containing an acetylated lysine side chain. The substrate utilized is a peptide containing amino acids 379-382 of human p53 (Arg-His-Lys-Lys[Ac]), an established target of SIRT1 activity; SIRT1 activity is directly proportional to the degree of deacetylation of Lys-382. Samples were incubated with peptide substrate (25 μM), and NAD^+ (500 μM) in a phosphate-buffered saline solution at 37° C. on a horizontal shaker for 45 minutes. The reaction was stopped with the addition of 2 mM nicotinamide and a developing solution that binds to the deacetylated lysine to form a fluorophore. Following 10 minutes incubation at 37° C., fluorescence was read in a plate-reading fluorometer at an excitation wavelength of 360 nm and an emission wavelength of 450 nm. Resveratrol ([…]) served as a SIRT1 activator and suramin sodium (25 mM) as a SIRT1 inhibitor; wells including each were utilized as positive and negative controls in each set of reactions. A standard curve was constructed using deacetylated substrate (0-10 μM). Data was normalized to cellular protein concentration measured via BCA-assay.

[5] = tested on: inflammatory biomarkers (C-reactive protein, IL-6, MCP-1, adiponectin); assay: Inflammatory biomarkers in diet-induced obese mice; assay type: in vivo, c57/BL6 mice; settings: for Adiponectin / C-reactive protein / IL-6 / MCP-1: 6 weeks
Method: as §1

[6] = Circulating level after dosing; assay type: in vivo
[7] = high dose: 225 mg resveratrol/kg diet
[8] = low dose: 12.5 mg resveratrol/kg diet

circulating level of resveratrol ([6]; oral dosing of about 10 mg, subject about 30 lb): about 200 nM | circulating level of resveratrol ([6]; oral dosing of about 50 mg, subject about 150 lb): about 200 nM | circulating level of resveratrol ([6]; oral dosing of about 220 mg, subject about 30 lb): about 0.5 mM | circulating level of resveratrol ([6]; oral dosing of about 1100 mg, subject about 150 lb): about 0.5 mM
Structure (SMILES): Oc1ccc(/C=C/c2cc(O)cc(O)c2)cc1 [Resveratrol, 3,5,4′-Trihydroxy-trans-stilbene]
effect on body weight, weight gain, or visceral adipose tissue mass (diet-induced obese mice [1]; high dose resveratrol): no significant effect | effect on body weight, weight gain, visceral adipose tissue mass, fat oxidation, respiratory exchange ratio (RER), or heat production (diet-induced obese mice [1]; low doses, each alone): no significant independent effect | Muscle Glucose Uptake (18F-deoxyglucose SUV) (diet-induced obese mice [2]; [7]): 3.87 ± 0.32^a SUV | Muscle Glucose Uptake (18F-deoxyglucose SUV) (diet-induced obese mice [2]; [8]): 3.63 ± 1.29^a SUV | RER (diet-induced obese mice [3]; high dose of resveratrol): decreased | heat production and skeletal muscle fat oxidation (diet-induced obese mice [3]; high dose of resveratrol): significantly increased | Respiratory Exchange Ratio (24 hr RER) (diet-induced obese mice [3]; [7]): 0.825 ± 0.007^b | Respiratory Exchange Ratio (24 hr RER) (diet-induced obese mice [3]; [8]): 0.847 ± 0.008^a | effect on plasma insulin or on muscle glucose uptake (diet-induced obese mice [4]): Neither resveratrol at either dose nor HMB exerted any significant effect | adipose tissue Sirt1 activity (SIRT1; high dose resveratrol): non-significant trend towards an increase | adipose tissue Sirt1 activity (SIRT1; resveratrol or HMB alone): Neither resveratrol nor HMB exerted significant independent effects | effect on MCP-1 or c-reactive protein ([5]; HMB or low dose of resveratrol alone): neither HMB nor a low dose of resveratrol exerted any effect | circulating IL-6 ([5]; high dose of resveratrol): significantly reduced | Adiponectin [5, 7]: 14.8 ± 1.8^b ng/mL | C-reactive protein [5, 7]: 123.9 ± 35.3^a ng/mL | IL-6 [5, 7]: 14.1 ± 1.3^b pg/mL | MCP-1 [5, 7]: 27.3 ± 6.8^b pg/mL | circulating IL-6 ([5]; low dose of resveratrol alone): no independent effect | Adiponectin [5, 8]: 12.4 ± 1.1 ng/mL | C-reactive protein [5, 8]: 134.8 ± 8.5^a ng/mL | IL-6 [5, 8]: 23.2 ± 2.9^a pg/mL | MCP-1 [5, 8]: 104.4 ± 16.5^a pg/mL

circulating level of leucine ([6]; dosing of about 60 mg leucine, subject weighing about 30 lb): about 0.25 mM | circulating level of leucine ([6]; dosing of about 225 mg leucine, subject weighing about 30 lb): about 0.5 mM | circulating level of leucine ([6]; dosing of about 300 mg leucine, subject weighing about 150 lb): about 0.25 mM | circulating level of leucine ([6]; dosing of about 1,125 mg leucine, subject weighing about 150 lb): about 0.5 mM
Structure (SMILES): CC(C)C[C@H](N)C(=O)O [leucine, L-leucine]
